We go through four compounds from US5599815A, “Antipsychotic benzoisothiazolyl piperazine derivatives” (Meiji Seika Kabushiki Kaisha, priority 1993, dated 1997).

One may read the ED50 as the dose that gives a 50% effect, or the effect in half of the subjects.

Read-outs that look alike come from different tables or passages of the source.

The nature of series [1]: Cataleptogenic activity (extrapyramidal side effect): catalepsy provoking effect in mice. The following applies: mouse, in vivo, ip. The procedure:
(§1) The extrapyramidal activity was evaluated on the basis of the catalepsy provoking effect as a representative pharmacological evaluation method of the extrapyramidal effect. Male ddY mice having a body weight of 25-35 g which were divided into groups consisting of 3-6 animals were subjected to the test. The compound of the present invention was administered intraperitoneally to observe catalepsy after 20, 30 and 40 minutes, respectively. Catalepsy was judged as positive in such cases that a mouse whose front paw was compulsorily hung up on an iron bar having a diameter of 1 mm and horizontally laid at a height of 3 cm remained in such a strained posture for more than 30 seconds.

In another series the test system is catalepsy in mice. The description is as above. The following applies: ip. The procedure:
as §1

Series [2] concerns hyper locomotion induced by methamphetamine in mice. Briefly: Anti-methamphetamine effect (antipsychotic activity): suppression of hyper locomotion induced by methamphetamine in mice. The class given is in vivo, mice (male ddY). The following applies: ip; for ED50: Mus musculus, read-out: Anti-methamphetamine effect ED50. The method, then:
Antipsychotic activity was evaluated on the basis of the suppressive activity on the stimulation of hyper locomotion induced by methamphetamine in mice. Male ddY mice having a weight of 25-35 g were divided into groups consisting of 3-6 animals. The mouse was subcutaneously administered with methamphetamine (2 mg/kg) fifteen minutes before the compound of the present invention was intraperitoneally administered. After further fifteen minutes, the animal was then placed in an apparatus to measure the locomotion for thirty minutes. (MUROMACHI KIKAI, ANIMEX AUTO MK-110) The effects of haloperidol and chlorpromazine were also evaluated as controls.

Where [3] appears, read: male ddY mice, methamphetamine 2 mg/kg sc 15 min before compound, locomotion measured for 30 min.

For the compound `CN(C)CCCN1c2ccccc2Sc2ccc(Cl)cc21` [Chlorpromazine, chlorpromazine], the TD50 in series [1] amounted to 6.2 mg/kg. Further, the “catalepsy provoking effect / extrapyramidal side effect (in words)” value with catalepsy in mice (male ddY mice) was “strong catalepsy provoking effect”. The ED50 in series [2] stood at 1.05 mg/kg. In addition, in series [2] (male ddY mice), the “anti-methamphetamine activity, that is the anti-psychotic activity (in words)” value (“anti-methamphetamine activity” below) is “have the anti-methamphetamine activity”.
With `O=c1ccc2ccccc2n1CCCN1CCN(c2nsc3ccccc23)CC1` [Example 5, 1-[4-[4-(1,2-benzisothiazol-3-yl)-1-piperazinyl]propyl]-2(1H)-quinolinone], in series [1], the TD50 turned out to be 83.3 mg/kg. Besides, the “catalepsy provoking effect / extrapyramidal side effect (in words)” value with catalepsy in mice (mouse, in vivo) is “very weak extrapyramidal side effect”. For the same compound, in series [2] (setting [3]), the ED50 is 0.92 mg/kg. Further, in series [2] (male ddY mice), the “anti-methamphetamine activity” value is listed as “have the anti-methamphetamine activity”.
Consider `O=C(CCCN1CCC(O)(c2ccc(Cl)cc2)CC1)c1ccc(F)cc1` [Haloperidol, haloperidol], for which the TD50 in series [1] stood at 1.3 mg/kg. The “catalepsy provoking effect / extrapyramidal side effect (in words)” value with catalepsy in mice (male ddY mice) is “strong catalepsy provoking effect”. For the same compound, the median effective dose (ED50) in series [2] worked out at 0.16 mg/kg. Also, the “anti-methamphetamine activity” value in series [2] (male ddY mice) is reported as “have the anti-methamphetamine activity”.
For `c1ccc2c(N3CCN(CCCCn4c5ccccc5c5ccccc54)CC3)nsc2c1` [Example 2, 9-[4-[4-(1,2-benzisothiazol-3-yl)-1-piperazinyl]butyl]carbazole], the TD50 in series [1] is greater than 100 mg/kg. Besides, the “catalepsy provoking effect / extrapyramidal side effect (in words)” value in the series with catalepsy in mice (mouse, in vivo) is listed as “very weak extrapyramidal side effect”. Also, the 50% effective dose (ED50) in series [2] (setting [3]) stood at 1.15 mg/kg. Besides, the “anti-methamphetamine activity” value in series [2] (male ddY mice) is given as “have the anti-methamphetamine activity”.
